# Experimental data reported in ChEMBL document CHEMBL1201862, “PubChem BioAssay data set” (2004).
#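 Cells were grown in 96-well plates and exposed to each compound for 48 hours at five concentrations; endpoints were interpolated linearly between bracketing concentrations, or set to the highest concentration if not reached. GI50 marks 50% less growth.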 Active and inactive are the calls of the source. Rule as the data show it: active = GI50 up to about 1.1 µM and inactive = higher.
# Tests used:
# Assay in all cases: NCI-60 cell line screen, 48 h
# HT-29 = system: HT-29
# HOP-62 = system: HOP-62
# SK-MEL-2 = system: SK-MEL-2
# TK-10 = system: TK-10
# NCI/ADR-RES = system: NCI/ADR-RES
# NCI-H522 = system: NCI-H522
# COLO 205 = system: COLO 205
# DU-145 = system: DU-145
# OVCAR-3 = system: OVCAR-3
# 786-0 = system: 786-0
# SNB-75 = system: SNB-75
# MDA-MB-231 = system: MDA-MB-231
# PC-3 = system: PC-3
# MOLT-4 = system: MOLT-4
# MCF7 = system: MCF7
# SF-539 = system: SF-539
# CCRF-CEM = system: CCRF-CEM
# SF-295 = system: SF-295
# OVCAR-8 = system: OVCAR-8
# A498 = system: A498
Compound,GI50 (HT-29),GI50 (HOP-62),GI50 (SK-MEL-2),GI50 (TK-10),GI50 (NCI/ADR-RES),GI50 (NCI-H522),GI50 (COLO 205),GI50 (DU-145),GI50 (OVCAR-3),GI50 (786-0),GI50 (SNB-75),GI50 (MDA-MB-231),GI50 (PC-3),GI50 (MOLT-4),GI50 (MCF7),GI50 (SF-539),GI50 (CCRF-CEM),GI50 (SF-295),GI50 (OVCAR-8),GI50 (A498)
O=C1CCC(Cc2ccc(Cl)cc2Cl)C(=O)N1 (centres undefined),> 100 µM (inactive),> 100 µM (inactive),> 100 µM (inactive),> 100 µM (inactive),> 100 µM (inactive),66.7 µM (inactive),> 100 µM (inactive),> 100 µM (inactive),> 100 µM (inactive),> 100 µM (inactive),64.6 µM (inactive),51.8 µM (inactive),> 100 µM (inactive),59.7 µM (inactive),> 100 µM (inactive),> 100 µM (inactive),> 100 µM (inactive),> 100 µM (inactive),> 100 µM (inactive),
COc1cc2c(c(OC)c1OC)C(=O)[C@H](O)[C@H]2NC(N)=O,> 100 µM (inactive),> 100 µM (inactive),,> 100 µM (inactive),> 100 µM (inactive),> 100 µM (inactive),50.7 µM (inactive),> 100 µM (inactive),82 µM (inactive),> 100 µM (inactive),23.3 µM (inactive),86.3 µM (inactive),> 100 µM (inactive),95.9 µM (inactive),> 100 µM (inactive),> 100 µM (inactive),> 100 µM (inactive),> 100 µM (inactive),> 100 µM (inactive),
Cc1sc(NC=C2C(=O)CC(C)(C)CC2=O)nc1-c1ccccc1,> 100 µM (inactive),> 100 µM (inactive),> 100 µM (inactive),> 100 µM (inactive),> 100 µM (inactive),80.5 µM (inactive),> 100 µM (inactive),> 100 µM (inactive),> 100 µM (inactive),> 100 µM (inactive),> 100 µM (inactive),> 100 µM (inactive),> 100 µM (inactive),> 100 µM (inactive),> 100 µM (inactive),> 100 µM (inactive),72.6 µM (inactive),> 100 µM (inactive),> 100 µM (inactive),
CNC(=S)/C(=N\Nc1[nH]cnc1C(N)=O)C(N)=S,16.1 µM (inactive),19.2 µM (inactive),0.875 µM (active),1.24 µM (inactive),1.36 µM (inactive),10.9 µM (inactive),4.57 µM (inactive),1.2 µM (inactive),6.43 µM (inactive),7.71 µM (inactive),6.82 µM (inactive),2.12 µM (inactive),5.52 µM (inactive),0.711 µM (active),16.5 µM (inactive),5.21 µM (inactive),0.689 µM (active),3.36 µM (inactive),1.11 µM (active),
Cc1cc(=O)oc2c(CNC(Cc3ccccc3)C(=O)O)c(O)ccc12 (centres undefined),> 100 µM (inactive),> 100 µM (inactive),> 100 µM (inactive),> 100 µM (inactive),> 100 µM (inactive),> 100 µM (inactive),> 100 µM (inactive),> 100 µM (inactive),> 100 µM (inactive),> 100 µM (inactive),82.2 µM (inactive),> 100 µM (inactive),> 100 µM (inactive),> 100 µM (inactive),> 100 µM (inactive),> 100 µM (inactive),> 100 µM (inactive),> 100 µM (inactive),> 100 µM (inactive),
COC(=O)c1ccc(C)cc1CC1Cc2cccc(C)c2C1=O (centres undefined),2.42 µM (inactive),17.9 µM (inactive),4.34 µM (inactive),12.9 µM (inactive),5.16 µM (inactive),2.37 µM (inactive),4.9 µM (inactive),11.9 µM (inactive),4.95 µM (inactive),14.6 µM (inactive),5.02 µM (inactive),7.1 µM (inactive),8.34 µM (inactive),4.11 µM (inactive),2.38 µM (inactive),4.02 µM (inactive),4.73 µM (inactive),6.49 µM (inactive),5.08 µM (inactive),
CN1C(=O)C(/C=N/NC(=O)c2cccnc2)C(N)N(C)C1=O (centres undefined),> 100 µM (inactive),> 100 µM (inactive),35.3 µM (inactive),> 100 µM (inactive),> 100 µM (inactive),> 100 µM (inactive),> 100 µM (inactive),> 100 µM (inactive),> 100 µM (inactive),> 100 µM (inactive),> 100 µM (inactive),> 100 µM (inactive),> 100 µM (inactive),> 100 µM (inactive),> 100 µM (inactive),,> 100 µM (inactive),> 100 µM (inactive),> 100 µM (inactive),
Cc1ccc(NC(=S)NNC(=O)c2cc(-c3ccccc3)nc3ccccc23)cc1,24 µM (inactive),13.2 µM (inactive),10.3 µM (inactive),14 µM (inactive),14 µM (inactive),14.7 µM (inactive),16 µM (inactive),12.9 µM (inactive),7.89 µM (inactive),13 µM (inactive),12.2 µM (inactive),18.5 µM (inactive),12 µM (inactive),14.3 µM (inactive),11.2 µM (inactive),15.7 µM (inactive),,5.92 µM (inactive),18.3 µM (inactive),
CCOC(=O)NC(Nc1ccc(S(=O)(=O)Nc2ncccn2)cc1)(C(=O)OCC)C(F)(F)F (centres undefined),> 100 µM (inactive),> 100 µM (inactive),> 100 µM (inactive),,> 100 µM (inactive),> 100 µM (inactive),> 100 µM (inactive),> 100 µM (inactive),> 100 µM (inactive),> 100 µM (inactive),> 100 µM (inactive),> 100 µM (inactive),> 100 µM (inactive),> 100 µM (inactive),0.279 µM (active),> 100 µM (inactive),> 100 µM (inactive),> 100 µM (inactive),> 100 µM (inactive),
COC(=O)CCC(C)C1CCC2C3C(C[C@H](OC(C)=O)[C@]12C)[C@@]1(C)CCC2(C[C@H]1C[C@H]3OC(C)=O)OOC1(CC[C@]3(C)C4C[C@H](OC(C)=O)[C@]5(C)C(C(C)CCC(=O)OC)CCC5C4[C@H](OC(C)=O)C[C@@H]3C1)OO2 (some centres undefined),> 100 µM (inactive),> 100 µM (inactive),> 100 µM (inactive),> 100 µM (inactive),> 100 µM (inactive),> 100 µM (inactive),> 100 µM (inactive),73.1 µM (inactive),> 100 µM (inactive),> 100 µM (inactive),68.4 µM (inactive),> 100 µM (inactive),> 100 µM (inactive),48.4 µM (inactive),> 100 µM (inactive),,14.8 µM (inactive),78.7 µM (inactive),> 100 µM (inactive),
COc1cc(-c2cc(=O)c3c(OC)c(OC)c(OC)c(OC)c3o2)cc(OC)c1OC [HEPATAMETHOXYFLAVONE],35.9 µM (inactive),41.9 µM (inactive),27.9 µM (inactive),44.4 µM (inactive),23.6 µM (inactive),19.1 µM (inactive),18.7 µM (inactive),45.5 µM (inactive),25.5 µM (inactive),58.9 µM (inactive),26.4 µM (inactive),31.6 µM (inactive),,24.9 µM (inactive),84.3 µM (inactive),> 100 µM (inactive),30.5 µM (inactive),28.1 µM (inactive),24.5 µM (inactive),21.2 µM (inactive)
